Values quoted from earlier work as cited in patent US20240182893A1, “INHIBITION OF FGR REDUCES FIBROSIS” (UNIVERSITY OF PITTSBURGH-OF THE COMMONWEALTH SYSTEM OF …, priority 2021, published 2024).

Test system: fibrosis in the lung
Conditions: in vivo; cited from earlier work

Row | SMILES | progression of fibrosis in the lung
1 | Cc1ccc(=O)n(-c2ccccc2)c1 [pirfenidone] | slow the progression of fibrosis
2 | COC(=O)c1ccc2c(c1)NC(=O)/C2=C(\Nc1ccc(N(C)C(=O)CN2CCN(C)CC2)cc1)c1ccccc1 [nintedanib] | slow the progression of fibrosis
